In patent US20210260069A1, “IRE1a INHIBITOR IN COMBINATION WITH CANCER [sequence] AGENT FOR CANCER TREATMENT” (Fosun Orinove PharmaTech, Inc., priority 2018, published 2021):

Legend:
[1] = system: human breast adenocarcinoma MDA-MB231 tumor cells; format: in vivo
Procedure: Orin 1001 was administered by oral gavage in combination with paclitaxel in a xenograft mouse model using female NCr nu/nu mice injected subcutaneously with human breast adenocarcinoma MDA-MB231 tumor cells. To evaluate the effect of Orin 1001 in combination with paclitaxel on early, mid or late stage tumor growth, dosing was initiated either on Day 1 (when tumors reached 225-250 mm^3), Day 14 or Day 28 of tumor growth. Orin 1001 was administered via oral gavage at 300 mg/kg/day in combination with paclitaxel at 10 mg/kg iv, weekly (n=10/group) for up to 60 days.

[2] = system: human ovarian carcinoma A2780 tumor cells; experiment: A2780 ovarian carcinoma xenograft (Example 18); format: in vivo, female NCr nu/nu mice; conditions: Orin 1001 300 mg/kg/day oral 28 days; paclitaxel 15 mg/kg iv weekly; endpoint 2000 mm^3 or Day 60
Procedure: (§1) Orin 1001 was administered by oral gavage in a xenograft mouse model using female NCr nu/nu mice injected subcutaneously with human ovarian carcinoma A2780 tumor cells. Animals were assigned to 4 groups (n=6/group); Vehicle control administered by oral gavage for 28 days, Orin 1001 administered via oral gavage at 300 mg/kg/day for 28 consecutive days, paclitaxel administered weekly by iv at 15 mg/kg, or Orin 1001 administered in combination with paclitaxel.
The percent tumor growth delay was calculated using the following equation: TGD (%)=[T-C/C]×100, where T-C is the difference in time to tumor endpoint from Treated (T) and Control (C).

[3] = system: human glioblastoma U-87 MG tumor cells; experiment: U-87 MG glioblastoma xenograft (Example 19); format: in vivo, female NCr nu/nu mice
Procedure: as §1, with “glioblastoma U-87 MG” for “ovarian carcinoma A2780”, “cells, a glioblastoma multiforme (GBM) cell line.” for “cells.”
The percent tumor growth delay was calculated using the following equation: TGD (%)=[T-C/C]×100; where T-C is the difference in time to tumor endpoint from Treated (T) and Control (C).
The time to tumor endpoint (TTE) for each animal was further calculated using the following equation: TTE (days)=log 10 (endpoint volume, mm^3)-b/m, where b is the intercept and m is the slope of the line obtained by linear regression of the log-transformed tumor growth data set.

[4] = Orin 1001 300 mg/kg/day oral 28 days, paclitaxel 15 mg/kg iv weekly, endpoint 2000 mm^3 or Day 60

COc1cc2c(C)c(CC(=O)N3CCOCC3)c(=O)oc2c(C=O)c1O [Orin 1001]
clinical signs of toxicity ([1]; 300 mg/kg/day oral gavage with paclitaxel 10 mg/kg iv weekly, up to 60 days): no clinical signs of toxicity | tolerability of extended oral dosing ([1]; up to 60 consecutive days): well tolerated | percent tumor growth delay (TGD) [2]: 29% | percent tumor growth delay (TGD) [3, 4]: 13% | time to tumor endpoint (TTE) [3, 4]: 29.3 days | tumor delay effect over the control ([3]; each agent alone): not very significant
